In patent publication US10428051B2 (priority 2015, dated 2019):
Like-named read-outs stand apart in the source and are kept apart here.

Molecular target: human σ1 receptor (Homo sapiens, UniProt Q99720)
Assay: biochemical
Assay type: binding
Design: μ and σ1 dual (binding to the σ1 receptor and the μ-opioid receptor expressed as Ki): key to the marks not given beside the values

human σ1 receptor, sequence (Q99720 whole entry): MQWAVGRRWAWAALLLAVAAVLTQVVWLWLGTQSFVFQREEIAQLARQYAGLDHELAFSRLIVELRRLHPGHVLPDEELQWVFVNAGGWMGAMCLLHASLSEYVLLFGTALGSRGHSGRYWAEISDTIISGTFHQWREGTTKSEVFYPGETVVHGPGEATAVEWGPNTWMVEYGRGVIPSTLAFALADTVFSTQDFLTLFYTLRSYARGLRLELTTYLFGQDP

| SMILES | Ki [nM] | μ and σ1 dual (binding to the σ1 receptor and the μ-opioid receptor expressed as Ki) | further results |
| --- | --- | --- | --- |
| CCC(=O)N(CC1(N2CCN(CC(C)C)CC2)CCOC(C)(C)C1)c1cccc(C(F)(F)F)n1 (stereo not shown) [Example 160, N-((4-(4-isobutylpiperazin-1-yl)-2,2-dimethyltetrahydro-2H-pyran-4-yl)methyl)-N-(6-(trifluoromethyl)pyridin-2-yl)propionamide] | < 500 | – | – |
| CCC(=O)N(CC1(N2CCN(Cc3cccnc3)CC2)CC1)c1ccccc1 [Example 119, N-phenyl-N-((1-(4-(pyridin-3-ylmethyl)piperazin-1-yl)cyclopropyl)methyl)propionamide] | < 500 | – | – |
| CCC(=O)N(CC1(N2CCN(CC(=O)N3CCCCC3)CC2)CCOCC1)c1ccccc1 [Example 127, N-((4-(4-(2-oxo-2-(piperidin-1-yl)ethyl)piperazin-1-yl)tetrahydro-2H-pyran-4-yl)methyl)-N-phenylpropionamide] | > 500 | – | – |
| CCC(=O)N(CC1(N2CCN(Cc3ccccc3)CC2)CCOCC1)c1ncccc1F [Example 82, N-((4-(4-benzylpiperazin-1-yl)tetrahydro-2H-pyran-4-yl)methyl)-N-(3-fluoropyridin-2-yl)propionamide] | < 100 | – | – |
| CCC(=O)N(CC1(N2CCN(CC(C)(C)OC)CC2)CCOCC1)c1cccc(C(F)(F)F)n1 [Example 191, N-((4-(4-(2-Methoxy-2-methylpropyl)piperazin-1-yl)tetrahydro-2H-pyran-4-yl)methyl)-N-(6-(trifluoromethyl)pyridin-2-yl)propionamide] | > 500 | – | – |
| CCC(=O)N(CC1(N2CCN(CCOC(C)C)CC2)CCOC(C)(C)C1)c1cccc(C#N)n1 (stereo not shown) [Example 172, N-(6-cyanopyridin-2-yl)-N-((4-(4-(2-isopropoxyethyl)piperazin-1-yl)-2,2-dimethyltetrahydro-2H-pyran-4-yl)methyl)propionamide] | > 500 | – | – |
| CCC(=O)N(CC1(N2CCN(Cc3ccc(F)cc3)CC2)CCOCC1)c1ccccc1 [Example 105, N-((4-(4-(4-fluorobenzyl)piperazin-1-yl)tetrahydro-2H-pyran-4-yl)methyl)-N-phenylpropionamide] | < 100 | – | – |
| CCC(=O)N(CC1(N2CCN(Cc3ccccc3)CC2)CCOC2(CCCC2)C1)c1cccc(C(F)(F)F)n1 (stereo not shown) [Example 89, N-((9-(4-benzylpiperazin-1-yl)-6-oxaspiro[4.5]decan-9-yl)methyl)-N-(6-(trifluoromethyl)pyridin-2-yl)propionamide] | < 100 | – | – |
| CCC(=O)N(CC1(N2CCN(Cc3ccccc3)CC2)CCOCC1)c1cncc(C(F)(F)F)c1 [Example 9, N-((4-(4-benzylpiperazin-1-yl)tetrahydro-2H-pyran-4-yl)methyl)-N-(5-(trifluoromethyl)pyridin-3-yl)propionamide] | – | ++ | – |
| CCC(=O)N(CC1(N2CCN(Cc3ccc(C(=O)NC)cc3)CC2)CCOCC1)c1ccccc1 [Example 125, N-methyl-4-((4-(4-((N-phenylpropionamido)methyl)tetrahydro-2H-pyran-4-yl)piperazin-1-yl)methyl)benzamide] | – | ++ | – |
| CCC(=O)N(CC1(N2CCN(CC(C)C)CC2)CCOCC1)c1cccc(C#N)n1 [Example 85, N-(6-cyanopyridin-2-yl)-N-((4-(4-isobutylpiperazin-1-yl)tetrahydro-2H-pyran-4-yl)methyl)propionamide] | > 500 | – | – |
| CCOc1ccc(N(CC2(N3CCN(Cc4ccccc4)CC3)CCN(C)CC2)C(=O)CC)cc1 [Example 24, N-((4-(4-benzylpiperazin-1-yl)-1-methylpiperidin-4-yl)methyl)-N-(4-ethoxyphenyl)propionamide] | – | – | Ki (combined class for both Ki-σ1 (assay A1) and Ki-μ (assay A2), human receptors, radioligand binding, read-out: μ and σ1 dual (binding to the σ1 receptor and the μ-opioid receptor expressed as Ki)): > 500 nM |
| CCC(=O)N(CC1(N2CCN(Cc3ccc(C(=O)NC)cc3)CC2)CC1)c1ccccc1 [Example 131, N-methyl-4-((4-(1-((N-phenylpropionamido)methyl)cyclopropyl)piperazin-1-yl)methyl)benzamide] | – | ++ | – |
| CCC(=O)N(CC(C)(C)N1CCN(CCOC(C)C)CC1)c1ncccc1F [Example 73, N-(3-fluoropyridin-2-yl)-N-(2-(4-(2-isopropoxyethyl)piperazin-1-yl)-2-methylpropyl)propionamide] | – | ++ | – |
| CCC(=O)N(CC1(N2CCN(Cc3ccccc3)CC2)CCOCC1)c1ccc(C(F)(F)F)cn1 [Example 7, N-((4-(4-benzylpiperazin-1-yl)tetrahydro-2H-pyran-4-yl)methyl)-N-(5-(trifluoromethyl)pyridin-2-yl)propionamide] | – | ++ | – |
| CCC(=O)N(CC1(N2CCN(Cc3ccccc3)CC2)CCOCC1)c1ccncc1 [Example 12, N-((4-(4-benzylpiperazin-1-yl)tetrahydro-2H-pyran-4-yl)methyl)-N-(pyridin-4-yl)propionamide] | > 500 | – | – |
| CCC(=O)N(CC1(N2CCN(Cc3ccc(C(F)(F)F)nc3)CC2)CCOCC1)c1ccccc1 [Example 103, N-phenyl-N-((4-(4-((6-(trifluoromethyl)pyridin-3-yl)methyl)piperazin-1-yl)tetrahydro-2H-pyran-4-yl)methyl)propionamide] | > 500 | – | – |

| SMILES | Ki [nM] | μ and σ1 dual (binding to the σ1 receptor and the μ-opioid receptor expressed as Ki) | further results |
| --- | --- | --- | --- |
| CCC(=O)N(CC1(N2CCN(Cc3ccccc3F)CC2)CC1)c1ccccc1 [Example 118, N-((1-(4-(2-fluorobenzyl)piperazin-1-yl)cyclopropyl)methyl)-N-phenylpropionamide] | < 100 | – | – |
| CCC(=O)N(CC1(N2CCN(Cc3ccccc3)CC2)CCOCC1)c1ncccc1C(F)(F)F [Example 59, N-((4-(4-benzylpiperazin-1-yl)tetrahydro-2H-pyran-4-yl)methyl)-N-(3-(trifluoromethyl)pyridin-2-yl)propionamide] | < 500 | – | – |
| CCC(=O)N(CC1(N2CCN(Cc3ccc(F)c(F)c3)CC2)CCOCC1)c1ccccc1 [Example 108, N-((4-(4-(3,4-difluorobenzyl)piperazin-1-yl)tetrahydro-2H-pyran-4-yl)methyl)-N-phenylpropionamide] | < 500 | – | – |
| CCOCCN1CCC(C2(CN(C(=O)CC)c3cccc(C(F)(F)F)n3)CCOCC2)CC1 [Example 177, N-((4-(1-(2-ethoxyethyl)piperidin-4-yl)tetrahydro-2H-pyran-4-yl)methyl)-N-(6-(trifluoromethyl)pyridin-2-yl)propionamide] | < 500 | – | – |
| CCNC(=O)N(CC1(N2CCN(Cc3ccccc3)CC2)CCOCC1)c1ccccn1 [Example 49, 1-((4-(4-benzylpiperazin-1-yl)tetrahydro-2H-pyran-4-yl)methyl)-3-ethyl-1-(pyridin-2-yl)urea] | – | ++ | – |
| CCC(=O)N(CC(C)(C)N1CCN(CCc2ncccc2F)CC1)c1ccccc1 [Example 72, N-(2-(4-(2-(3-fluoropyridin-2-yl)ethyl)piperazin-1-yl)-2-methylpropyl)-N-phenylpropionamide] | – | ++ | – |
| CCC(=O)N(CC1(N2CCN(CC(=O)N3CCCCC3)CC2)CC1)c1ccccc1 [Example 132, N-((1-(4-(2-oxo-2-(piperidin-1-yl)ethyl)piperazin-1-yl)cyclopropyl)methyl)-N-phenylpropionamide] | – | ++ | – |
| O=C(c1cccs1)N(CC1(N2CCN(Cc3ccccc3)CC2)CCOCC1)c1ccccn1 [Example 38, N-((4-(4-benzylpiperazin-1-yl)tetrahydro-2H-pyran-4-yl)methyl)-N-(pyridin-2-yl)thiophene-2-carboxamide] | – | ++ | – |
| CCC(=O)N(CC1(N2CCN(CC(C)C)CC2)CCOCC1)c1ncccc1C(F)(F)F [Example 63, N-((4-(4-isobutylpiperazin-1-yl)tetrahydro-2H-pyran-4-yl)methyl)-N-(3-(trifluoromethyl)pyridin-2-yl)propionamide] | – | ++ | – |
| CCC(=O)N(CC(C)(C)N1CCN(CC(C)C)CC1)c1ncccc1F [Example 74, N-(3-fluoropyridin-2-yl)-N-(2-(4-isobutylpiperazin-1-yl)-2-methylpropyl)propionamide] | – | ++ | – |
| CCC(=O)N(CC1(N2CCN(Cc3cccc(F)c3)CC2)CC1)c1ccccc1 [Example 116, N-((1-(4-(3-fluorobenzyl)piperazin-1-yl)cyclopropyl)methyl)-N-phenylpropionamide] | < 100 | – | – |
| CCC(=O)N(CC1(N2CCN(Cc3ccccc3)CC2)CCOCC1)c1nc(C(F)(F)F)ccc1C#N [Example 60, N-((4-(4-benzylpiperazin-1-yl)tetrahydro-2H-pyran-4-yl)methyl)-N-(3-cyano-6-(trifluoromethyl)pyridin-2-yl)propionamide] | < 500 | – | – |
| CCC(=O)N(CC1(N2CCN(CC(C)C)CC2)CCOCC1)c1ncccc1C#N [Example 62, N-(3-cyanopyridin-2-yl)-N-((4-(4-isobutylpiperazin-1-yl)tetrahydro-2H-pyran-4-yl)methyl)propionamide] | – | ++ | – |
| CCC(=O)N(CC1(N2CCN(Cc3ccccc3)CC2)CCOC(C)(C)C1)c1cccc(C#N)n1 (stereo not shown) [Example 65, N-((4-(4-benzylpiperazin-1-yl)-2,2-dimethyltetrahydro-2H-pyran-4-yl)methyl)-N-(6-cyanopyridin-2-yl)propionamide] | < 500 | – | – |
| CCC(=O)N(CC1(N2CCN(Cc3cncc(F)c3)CC2)CCOCC1)c1ccccc1 [Example 107, N-((4-(4-((5-fluoropyridin-3-yl)methyl)piperazin-1-yl)tetrahydro-2H-pyran-4-yl)methyl)-N-phenylpropionamide] | < 500 | – | – |
| CCC(=O)N(CC1(N2CCN(Cc3ccc(C(F)(F)F)nc3)CC2)CC1)c1ccccc1 [Example 113, N-phenyl-N-((1-(4-((6-(trifluoromethyl)pyridin-3-yl)methyl)piperazin-1-yl)cyclopropyl)methyl)propionamide] | – | ++ | – |
| CCC(=O)N(CC1(N2CCN(Cc3ccccc3)CC2)CCOCC1)c1cccc(C#N)c1 [Example 57, N-((4-(4-benzylpiperazin-1-yl)tetrahydro-2H-pyran-4-yl)methyl)-N-(3-cyanophenyl)propionamide] | – | ++ | – |
